Article PMC11396129, “Oxindole–benzothiazole hybrids as CDK2 inhibitors and anticancer agents: design, synthesis and biological evaluation” (BMC Chemistry, 2024)

Columns and labels:
CCRF-CEM = assay: NCI 60 panel growth inhibition (SRB), leukemia; type: cell-based, human; details: for GI%: 10 μM
Procedure, shortened: (§1)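 Compound stocks in DMSO (400× final top concentration) are diluted to 2× in gentamicin-containing medium, then serially to five levels. Cells, seeded 5000–40,000/well, receive drug 24 h after plating; adherent lines end with cold TCA fixation.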

HL-60(TB) = assay: NCI 60 panel growth inhibition (SRB), leukemia; type: cell-based, human; details: for GI%: HL-60(TB), 10 μM
Procedure, shortened: as §1

K-562 = assay: NCI 60 panel growth inhibition (SRB), leukemia; type: cell-based, human; details: for GI%: K-562, 10 μM
Procedure, shortened: as §1

MOLT-4 = assay: NCI 60 panel growth inhibition (SRB), leukemia; type: cell-based, human; details: for GI%: MOLT-4, 10 μM
Procedure, shortened: as §1

RPMI-8226 = assay: NCI 60 panel growth inhibition (SRB), leukemia; type: cell-based, human; details: for GI%: RPMI-8226, 10 μM
Procedure, shortened: as §1

SR = assay: NCI 60 panel growth inhibition (SRB), leukemia; type: cell-based, human; details: for GI%: 10 μM
Procedure, shortened: as §1

A549/ATCC = assay: NCI 60 panel growth inhibition (SRB), non-small cell lung cancer; type: cell-based, human; details: for GI%: 10 μM
Procedure, shortened: as §1

EKVX = assay: as above; type: cell-based, human; details: for GI%: 10 μM
Procedure, shortened: as §1

HOP-62 = assay: as above; type: cell-based, human
Procedure, shortened: as §1

HOP-92 = assay: as above; type: cell-based, human; details: for GI%: HOP-92, 10 μM
Procedure, shortened: as §1

NCI-H226 = assay: as above; type: cell-based, human; details: for GI%: NCI-H226, 10 μM
Procedure, shortened: as §1

NCI-H23 = assay: as above; type: cell-based, human; details: for GI%: NCI-H23, 10 μM
Procedure, shortened: as §1

NCI-H322M = assay: as above; type: cell-based, human; details: for GI%: 10 μM
Procedure, shortened: as §1

NCI-H460 = assay: as above; type: cell-based, human; details: for GI%: NCI-H460, 10 μM
Procedure, shortened: as §1

NCI-H522 = assay: as above; type: cell-based, human; details: for GI%: NCI-H522, 10 μM
Procedure, shortened: as §1

COLO 205 = assay: NCI 60 panel growth inhibition (SRB), colon cancer; type: cell-based, human
Procedure, shortened: as §1

HCC-2998 = assay: NCI 60 panel growth inhibition (SRB), colon cancer; type: cell-based, human; details: for GI%: HCC-2998, 10 μM
Procedure, shortened: as §1

HCT-116 = assay: NCI 60 panel growth inhibition (SRB), colon cancer; type: cell-based, human; details: for GI%: HCT-116, 10 μM
Procedure, shortened: as §1

HCT-15 = assay: NCI 60 panel growth inhibition (SRB), colon cancer; type: cell-based, human; details: for GI%: HCT-15, 10 μM
Procedure, shortened: as §1

KM12 = assay: NCI 60 panel growth inhibition (SRB), colon cancer; type: cell-based, human; details: for GI%: KM12, 10 μM
Procedure, shortened: as §1

SW-620 = assay: NCI 60 panel growth inhibition (SRB), colon cancer; type: cell-based, human; details: for GI%: SW-620, 10 μM
Procedure, shortened: as §1

SF-268 = assay: NCI 60 panel growth inhibition (SRB), CNS cancer; type: cell-based, human; details: for GI%: SF-268, 10 μM
Procedure, shortened: as §1

SF-295 = assay: NCI 60 panel growth inhibition (SRB), CNS cancer; type: cell-based, human; details: for GI%: SF-295, 10 μM
Procedure, shortened: as §1

SF-539 = assay: NCI 60 panel growth inhibition (SRB), CNS cancer; type: cell-based, human; details: for GI%: SF-539, 10 μM
Procedure, shortened: as §1

SNB-19 = assay: NCI 60 panel growth inhibition (SRB), CNS cancer; type: cell-based, human; details: for GI%: SNB-19, 10 μM
Procedure, shortened: as §1

SNB-75 = assay: NCI 60 panel growth inhibition (SRB), CNS cancer; type: cell-based, human; details: SNB-75, 10 μM
Procedure, shortened: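 Two-stage NCI process: single-dose screen, then five-concentration testing of selected compounds. Growth relative to time-zero and untreated controls was derived from SRB absorbance, and TGI from the concentration giving Ti = Tz.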

U251 = assay: NCI 60 panel growth inhibition (SRB), CNS cancer; type: cell-based, human; details: for GI%: U251, 10 μM
Procedure, shortened: as §1

LOX IMVI = assay: NCI 60 panel growth inhibition (SRB), melanoma; type: cell-based, human; details: for GI%: 10 μM
Procedure, shortened: as §1

M14 = assay: NCI 60 panel growth inhibition (SRB), melanoma; type: cell-based, human; details: for GI%: M14, 10 μM
Procedure, shortened: as §1

MALME-3M = assay: NCI 60 panel growth inhibition (SRB), melanoma; type: cell-based, human; details: for GI%: 10 μM
Procedure, shortened: as §1

SK-MEL-28 = assay: NCI 60 panel growth inhibition (SRB), melanoma; type: cell-based, human; details: for GI%: SK-MEL-28, 10 μM
Procedure, shortened: as §1

SK-MEL-5 = assay: NCI 60 panel growth inhibition (SRB), melanoma; type: cell-based, human; details: for GI%: SK-MEL-5, 10 μM
Procedure, shortened: as §1

UACC-257 = assay: NCI 60 panel growth inhibition (SRB), melanoma; type: cell-based, human; details: for GI%: UACC-257, 10 μM
Procedure, shortened: as §1

UACC-62 = assay: NCI 60 panel growth inhibition (SRB), melanoma; type: cell-based, human; details: for GI%: UACC-62, 10 μM
Procedure, shortened: as §1

With `COc1ccc2c(c1)C(=NNC(=O)COc1cc(-c3nc4ccccc4s3)ccc1OC)C(=O)N2` [Compound 9o, 2-(5-(Benzo[d]thiazol-2-yl)-2-methoxyphenoxy)-N′-(5-methoxy-2-oxoindolin-3-ylidene)acetohydrazide] the GI% (CCRF-CEM) was 57.64%, the GI50 (CCRF-CEM; Homo sapiens, five dose) was 6.08 µM and the GI% (HL-60(TB)) was 7.99%. For the same compound, the GI50 (HL-60(TB); Homo sapiens, HL-60 (TB), five dose) was > 100 µM, the GI50 (K-562; Homo sapiens, K562, K-562, five dose) was 3.75 µM and the GI% (K-562) was 64.36%. For the same compound, the GI50 (MOLT-4; Homo sapiens, MOLT-4, five dose) was 5.05 µM, the GI% (MOLT-4) was 36.32% and the GI50 (RPMI-8226; Homo sapiens, RPMI-8226, five dose) was 61.4 µM. It also gave a GI% (RPMI-8226) of 66.93%, a GI% (SR) of 35.47% and a GI50 (SR; Homo sapiens, five dose) of 20.9 µM. For the same compound, the GI% (A549/ATCC) was 39.87%, the GI50 (A549/ATCC; Homo sapiens, five dose) was 30.9 µM and the GI% (EKVX) was 55.62%. It also gave a GI50 (EKVX; Homo sapiens, five dose) of 20 µM, a GI50 (HOP-62; Homo sapiens, HOP-62, five dose) of 7.84 µM and a GI% (HOP-92) of 15.22%. It also gave a GI50 (HOP-92; Homo sapiens, HOP-92, five dose) of 51.9 µM, a GI50 (NCI-H226; Homo sapiens, NCI-H226, five dose) of 21.3 µM and a GI% (NCI-H226) of 5.08%. The GI50 (NCI-H23; Homo sapiens, NCI-H23, five dose) was 3.03 µM, the GI% (NCI-H23) was 84.74% and the GI% (NCI-H322M) was 9.70%. The GI50 (NCI-H322M; Homo sapiens, five dose) was > 100 µM, the GI50 (NCI-H460; Homo sapiens, NCI-H460, five dose) was 9.26 µM and the GI% (NCI-H460) was 106.89%. For the same compound, the GI50 (NCI-H522; Homo sapiens, NCI-H522, five dose) was 48 µM, the GI% (NCI-H522) was 5.70% and the GI50 (COLO 205; Homo sapiens, COLO 205, five dose) was 10.6 µM. The GI% (HCC-2998) was 44.35%, the GI50 (HCC-2998; Homo sapiens, HCC-2998, five dose) was 5.34 µM and the GI% (HCT-116) was 87.90%. The GI50 (HCT-116; Homo sapiens, HCT-116, five dose) was 4.5 µM, the GI% (HCT-15) was 127.40% and the GI50 (HCT-15; Homo sapiens, HCT-15, five dose) was 3.6 µM. For the same compound, the GI50 (KM12; Homo sapiens, KM12, five dose) was > 100 µM, the GI% (KM12) was 36.53% and the GI50 (SW-620; Homo sapiens, SW-620, five dose) was 2.27 µM. For the same compound, the GI% (SW-620) was 148.26%, the GI50 (SF-268; Homo sapiens, SF-268, five dose) was > 100 µM and the GI% (SF-268) was 51.91%. It also gave a GI50 (SF-295; Homo sapiens, SF-295, five dose) of 11.8 µM, a GI% (SF-295) of 31.59% and a GI50 (SF-539; Homo sapiens, SF-539, five dose) of 39.9 µM. For the same compound, the GI% (SF-539) was 12.44%, the GI50 (SNB-19; Homo sapiens, SNB-19, five dose) was 5.72 µM and the GI% (SNB-19) was 49.50%. The GI% (SNB-75) was “– (GI% < 5%)”, the GI50 (U251; Homo sapiens, U-251, U251, five dose) was 2.02 µM and the GI% (U251) was 143.46%. It also gave a GI% (LOX IMVI) of 160.95%, a GI50 (LOX IMVI; Homo sapiens, five dose) of 4.09 µM and a GI50 (M14; Homo sapiens, M14, five dose) of 47.4 µM. It also gave a GI% (M14) of 39.13%, a GI% (MALME-3M) of 35.23% and a GI50 (MALME-3M; Homo sapiens, five dose) of 2.28 µM. The GI50 (SK-MEL-28; Homo sapiens, SK-MEL-28, five dose) was > 100 µM, the GI% (SK-MEL-28) was 37.85% and the GI50 (SK-MEL-5; Homo sapiens, SK-MEL-5, five dose) was 41.5 µM. For the same compound, the GI% (SK-MEL-5) was 24.21%, the GI50 (UACC-257; Homo sapiens, UACC-257, five dose) was > 100 µM and the GI% (UACC-257) was “– (GI% < 5%)”. The GI50 (UACC-62; Homo sapiens, UACC-62, five dose) was 59.3 µM, the GI% (UACC-62) was “– (GI% < 5%)” and the melting point was 199 to 201 °C.

For `COc1cccc(-c2nc3ccccc3s2)c1OCC(=O)NN=C1C(=O)Nc2ccc([N+](=O)[O-])cc21` [Compound 9j, 2-(2-(Benzo[d]thiazol-2-yl)-6-methoxyphenoxy)-N′-(5-nitro-2-oxoindolin-3-ylidene)acetohydrazide], the GI% (CCRF-CEM) was 34.81%, the GI% (HL-60(TB)) was “– (GI% < 5%)” and the GI% (K-562) was “– (GI% < 5%)”. The GI% (MOLT-4) was 9.01%, the GI% (RPMI-8226) was 22.11% and the GI% (SR) was “– (GI% < 5%)”. For the same compound, the GI% (A549/ATCC) was 5.97%, the GI% (EKVX) was 26.64% and the GI% (HOP-62; HOP-62, 10 μM) was “– (GI% < 5%)”. It also gave a GI% (HOP-92) of 30.70%, a GI% (NCI-H226) of 21.82% and a GI% (NCI-H23) of 22.82%. The GI% (NCI-H322M) was 6.18%, the GI% (NCI-H460) was “– (GI% < 5%)” and the GI% (NCI-H522) was “– (GI% < 5%)”. The GI% (COLO 205; COLO 205, 10 μM) was “– (GI% < 5%)”, the GI% (HCC-2998) was “– (GI% < 5%)” and the GI% (HCT-116) was 7.08%. For the same compound, the GI% (HCT-15) was 5.47%, the GI% (KM12) was 5.79% and the GI% (SW-620) was “– (GI% < 5%)”. The GI% (SF-268) was “– (GI% < 5%)”, the GI% (SF-295) was 11.71% and the GI% (SF-539) was “– (GI% < 5%)”. The GI% (SNB-19) was 5.77%, the GI% (SNB-75) was “– (GI% < 5%)” and the GI% (U251) was “– (GI% < 5%)”. For the same compound, the GI% (LOX IMVI) was “– (GI% < 5%)”, the GI% (M14) was 8.57% and the GI% (MALME-3M) was 12.74%. For the same compound, the GI% (SK-MEL-28) was “– (GI% < 5%)”, the GI% (SK-MEL-5) was 24.59% and the GI% (UACC-257) was 5.08%. For the same compound, the GI% (UACC-62) was 11.06% and the melting point was 276 to 278 °C.
